Test [1] addresses T1, glycine receptor α1 subunit (GlyR α1) (Mus musculus, UniProt Q64018).
T1 construct: gene Glra1; native GlyRs in hypoglossal motoneurons of brain stem slices (Glra1+/+, P18-24); with GlyR β subunit (Glrb)
Nature of the test: whole-cell patch-clamp dose-response of bath-applied glycine in brain stem slices. For orientation: The patch-clamp technique gives a direct electrical read-out from membranes.

Test [2] deals with T2, glycine receptor α1 subunit (GlyR α1 Q177K, shaky) (Mus musculus, UniProt Q64018, Q205K).
T2 construct: gene Glra1; native GlyRs in hypoglossal motoneurons of brain stem slices (Glra1sh/sh, P18-24); with GlyR β subunit (Glrb)
The description is as above.

A word on the EC50: it is the concentration needed to bring the measured effect to its halfway point. Read a high EC50 as a need for much substance.

Take `NCC(=O)O` [glycine]: the EC50 in test [1] was found to be 277 µM; in test [2], 384 µM.

(Values after article PMC5992992, “Functional Consequences of the Postnatal Switch From Neonatal to Mutant Adult Glycine Receptor α1 Subunits in the Shaky Mouse Model of Startle Disease” (Frontiers in Molecular Neuroscience, 2018).)
